Measurements taken from article PMC6169004, “In vitro pro-inflammatory enzyme inhibition and anti-oxidant potential of selected Sri Lankan medicinal plants” (BMC Complementary and Alternative Medicine, 2018).

Target: T1, A5-LOX (soybean); arachidonate-5-lipoxygenase
T1 construct: gene LOX1.1; most likely lipoxygenase-1
Assay: spectrophotometric, absorbance at […] nm
Format: biochemical, Glycine max
Details: linoleic acid substrate ([…] μL of […]), sodium phosphate pH […] °C, […] min preincubation

Anti-A5-LOX activity IC50 (μg mL^- 1): 1.76 ± 0.15 μg mL^− 1
Compound: O=c1cc(-c2ccccc2)oc2cc(O)c(O)c(O)c12 [Baicalein]
